Test results: patent publication US11166460B2, “α-amino acrylate microbicide, and preparation method therefor and uses thereof” (priority 2017, dated 2021)
≈ marks a conversion by molar mass, not a printed value. Where a name gives a salt, the structure may show the parent alone. Read-outs that look alike come from different tables or passages of the source.

Legend:
[1] = system: tobacco mosaic virus (TMV); assay: Anti-TMV protective activity (protection mode), live friction inoculation on tobacco seedlings; assay type: in vivo; conditions: for inhibition at 100 µg/mL: Tobacco mosaic virus, read-out: Anti-TMV activity, Protection effect (inhibition)
[2] = system: tobacco mosaic virus (TMV); assay: Anti-TMV inactivation activity (inactivation mode), compound mixed with TMV before inoculation of tobacco leaves; assay type: in vivo; conditions: for inhibition at 100 µg/mL: Tobacco mosaic virus, read-out: Anti-TMV activity, Inactivation effect (inhibition)
[3] = system: tobacco mosaic virus (TMV); assay: Anti-TMV inducing activity (induction mode), tobacco seedlings; assay type: in vivo; conditions: for inhibition at 100 µg/mL: Tobacco mosaic virus
[4] = system: tobacco mosaic virus (TMV); assay: Anti-TMV curative activity (treatment mode), live friction inoculation on tobacco seedlings; assay type: in vivo; conditions: for inhibition at 100 µg/mL: Tobacco mosaic virus
[5] = system: wheat Gibberella zeae; assay: microbe, parasite or virus in culture; assay type: cell-based; conditions: for inhibition at 50 µg/mL: Fusarium graminearum
[6] = system: Rhizoctonia cerealis; assay: Fungicidal activity, fungi growth rate method, RC; assay type: cell-based; conditions: 50 μg/mL; for inhibition at 50 µg/mL: Ceratobasidium cereale
[7] = system: Alternaria solani; assay: Fungicidal activity, fungi growth rate method, AS; assay type: cell-based; conditions: 50 μg/mL; for inhibition at 50 µg/mL: Alternaria solani
[8] = system: Physalospora piricola; assay: Fungicidal activity, fungi growth rate method, PP; assay type: cell-based; conditions: 50 μg/mL
[9] = system: Phytophthora infestans (Mont) de Bary; assay: microbe, parasite or virus in culture; assay type: cell-based; conditions: for inhibition at 50 µg/mL: Phytophthora infestans
[10] = system: Sclerotinia sclerotiorum; assay: microbe, parasite or virus in culture; assay type: cell-based
[11] = system: Cercospora arachidicola; assay: Fungicidal activity, fungi growth rate method, CA; assay type: cell-based; conditions: 50 μg/mL; for inhibition at 50 µg/mL: Mycosphaerella arachidis
[12] = system: Pellicularia sasakii; assay: Fungicidal activity, fungi growth rate method, PS; assay type: cell-based; conditions: 50 μg/mL
[13] = system: Botrytis cinerea; assay: Fungicidal activity, fungi growth rate method, BC; assay type: cell-based; conditions: 50 μg/mL; for inhibition at 50 µg/mL: Botrytis cinerea
[14] = 100 μg/mL, tobacco seedlings, checked on seventh day
[15] = 100 μg/mL, tobacco leaves, checked on seventh day
[16] = read-out: Fungicidal activity, inhibition, GZ
[17] = read-out: Fungicidal activity, inhibition, RC
[18] = read-out: Fungicidal activity, inhibition, AS
[19] = read-out: Fungicidal activity, inhibition, PP
[20] = read-out: Fungicidal activity, inhibition, PI
[21] = Sclerotinia sclerotiorum, 50 μg/mL, read-out: Fungicidal activity, inhibition, SS
[22] = read-out: Fungicidal activity, inhibition, CA
[23] = read-out: Fungicidal activity, inhibition, PS
[24] = read-out: Anti-TMV activity, Induction effect (inhibition), 100 μg/mL, tobacco seedlings
[25] = read-out: Fungicidal activity, inhibition, BC
[26] = read-out: Anti-TMV activity, Curative effect (inhibition), 100 μg/mL, tobacco seedlings, checked on seventh day
[27] = read-out: Fungicidal activity (inhibition) against GZ: wheat Gibberella zeae
[28] = read-out: Fungicidal activity (inhibition) against RC: Rhizoctonia cerealis
[29] = read-out: Fungicidal activity (inhibition) against AS: Alternaria solani
[30] = read-out: Fungicidal activity (inhibition) against PP: Physalospora piricola
[31] = read-out: Fungicidal activity (inhibition) against PI: Phytophthora infestans (Mont) de Bary
[32] = Sclerotinia sclerotiorum, 50 μg/mL, read-out: Fungicidal activity (inhibition) against SS: Sclerotinia sclerotiorum
[33] = read-out: Fungicidal activity (inhibition) against CA: Cercospora arachidicola
[34] = read-out: Fungicidal activity (inhibition) against PS: Pellicularia sasakii
[35] = read-out: Fungicidal activity (inhibition) against BC: Botrytis cinerea
[36] = 100 μg/mL, tobacco seedlings, read-out: Anti-TMV activity, Induction effect (inhibition)

| SMILES | melting point [°C] | inhibition at 50 µg/mL [5, 16] [%] | inhibition at 100 µg/mL [1] [%] | inhibition at 50 µg/mL [6, 17] [%] | inhibition at 50 µg/mL [7, 18] [%] | inhibition at 50 µg/mL [8, 19] [%] | inhibition at 50 µg/mL [9, 20] [%] | inhibition at 100 µg/mL [2] [%] | inhibition at 50 µg/mL [10, 21] [%] | inhibition at 50 µg/mL [11, 22] [%] | inhibition at 50 µg/mL [12, 23] [%] | inhibition at 100 µg/mL [3, 24] [%] | inhibition at 50 µg/mL [13, 25] [%] | inhibition at 100 µg/mL [4, 26] [%] | inhibition at 50 µg/mL [5, 27] [%] | inhibition at 50 µg/mL [6, 28] [%] | inhibition at 50 µg/mL [7, 29] [%] | inhibition at 50 µg/mL [8, 30] [%] | inhibition at 50 µg/mL [9, 31] [%] | inhibition at 50 µg/mL [10, 32] [%] | also measured |
| --- | --- | --- | --- | --- | --- | --- | --- | --- | --- | --- | --- | --- | --- | --- | --- | --- | --- | --- | --- | --- | --- |
| O=C(N/C(=C\c1ccccc1)C(=O)N1CCC(O)(c2ccc(Br)cc2)CC1)C1CCNCC1 (as salt: hydrochloride) [Compound 4, (Z)-N-[1-[[4-(4-bromophenyl)-4-hydroxy-1-piperidinyl]carbonyl]-2-phenylethenyl]-1-piperidine-4-carboxamide-hydrochloride] | 147 to 149 | – | – | – | – | – | – | – | – | – | – | – | – | – | – | – | – | – | – | – | – |
| CSC(=O)c1cccc2nnsc12 [BTH, Acibenzolar-S-Methyl, reference compound] | – | – | – | – | – | – | – | – | – | – | – | – | – | – | – | – | – | – | – | – | Anti-TMV activity, Protection effect (inhibition) [1, 14]: 76%; Anti-TMV activity, Inactivation effect (inhibition) [2, 15]: 63%; Anti-TMV activity, Induction effect (inhibition) ([3]; 100 μg/mL, tobacco seedlings): 96%; Anti-TMV activity, Curative effect (inhibition) [4, 14]: 50.00% |
| O=C(N/C(=C\c1ccccc1)C(=O)N1CCC(O)(c2ccc(Br)cc2)CC1)C1CCNCC1 [Compound 4, (Z)-N-[1-[[4-(4-bromophenyl)-4-hydroxy-1-piperidinyl]carbonyl]-2-phenylethenyl]-1-piperidine-4-carboxamide-hydrochloride] | – | 43 | 1 | 23 | 21 | 12 | 11 | 3 | 47 | 6 | 9 | 1 | 24 | 0 | – | – | – | – | – | – | – |
| O=C(N/C(=C\c1cccs1)C(=O)N1CCC(O)(c2ccc(Br)cc2)CC1)c1ccccc1 [Compound 24, (Z)-N-[1-[[4-(4-bromophenyl)-4-hydroxy-1-piperidinyl]carbonyl]-2-(2-thienyl)ethenyl]benzamide] | 180 to 182 | 23 | 36 | 19 | 15 | 10 | 17 | 1 | 67 | 16 | 18 | – | 14 | 0 | < 45 | < 20 | < 30 | < 20 | < 25 | 67 | inhibition at 50 µg/mL [11, 33]: < 25%; inhibition at 50 µg/mL [12, 34]: < 30%; inhibition at 50 µg/mL [13, 35]: ≤ 20% |
| O=C(N/C(=C\c1ccco1)C(=O)N1CCC(O)(c2ccc(Br)cc2)CC1)c1ccccc1 [Compound 25, (Z)-N-[1-[[4-(4-bromophenyl)-4-hydroxy-1-piperidinyl]carbonyl]-2-(2-furanyl)ethenyl]benzamide] | 134 to 135 | 31 | 46 | 36 | 16 | 15 | 10 | 31 | 100 | 22 | 27 | – | 20 | 55 | < 45 | 36 | < 30 | < 20 | < 25 | 100 | EC90 ([10]; Sclerotinia sclerotiorum, read-out: EC90 against S. sclerotiorum in vitro): 221 µg/mL (≈ 446 µM); inhibition at 50 µg/mL [11, 33]: < 25%; inhibition at 50 µg/mL [12, 34]: < 30%; inhibition at 50 µg/mL [13, 35]: ≤ 20% |
| O=C(N/C(=C\c1ccccc1)C(=O)N1CCC(O)(c2ccc(Br)cc2)CC1)c1ccccc1 [Compound 76, (Z)-N-[1-[[4-(4-bromophenyl)-4-hydroxy-1-piperidinyl]carbonyl]-2-phenylethenyl]benzamide, reference compound] | – | 43 | 38 | 15 | 14 | 15 | 24 | 29 | 50 | 24 | 14 | 15 | 18 | 0 | 43 | 15 | 14 | 15 | 24 | 50 | inhibition at 50 µg/mL [11, 33]: 24%; inhibition at 50 µg/mL [12, 34]: 14%; inhibition at 50 µg/mL [13, 35]: 18% |
| CNCC(=O)N[C@@H](CO)C(=O)N[C@H]1[C@H](O)[C@@H](O)[C@H](n2ccc(N)nc2=O)O[C@@H]1C(N)=O [Ningnanmycin, ningnanmycin, reference compound] | – | – | 71 | – | – | – | – | 58 | – | – | – | 82 | – | 63 | – | – | – | – | – | – | Anti-TMV activity, Curative effect (inhibition) [4, 14]: 62% |
| NC(=O)c1ncn([C@@H]2O[C@H](CO)[C@@H](O)[C@H]2O)n1 [Ribavirin, ribavirin, reference compound] | – | – | 58 | – | – | – | – | – | – | – | – | – | – | 28 | – | – | – | – | – | – | inhibition at 100 µg/mL [2, 15]: 81%; inhibition at 100 µg/mL [3, 36]: 4% |
| Cc1ccc(NC(=O)c2snnc2C)cc1Cl [TDL, Tiadinil, reference compound] | – | – | – | – | – | – | – | – | – | – | – | – | – | – | – | – | – | – | – | – | inhibition at 100 µg/mL [1, 14]: 32%; inhibition at 100 µg/mL [2, 15]: 55%; inhibition at 100 µg/mL [3, 36]: 73%; inhibition at 100 µg/mL ([4]; 100 μg/mL, tobacco seedlings, checked on seventh day, read-out: Anti-TMV activity, Curative effect (inhibition)): 49% |
| CO/C=C(/C(=O)OC)c1ccccc1Oc1cc(Oc2ccccc2C#N)ncn1 [azoxystrobin, reference compound] | – | – | – | – | – | – | – | – | – | – | – | – | – | – | – | – | – | – | – | – | Fungicidal activity (inhibition) against GZ: wheat Gibberella zeae ([5]; 50 μg/mL): 100%; Fungicidal activity (inhibition) against RC: Rhizoctonia cerealis [6]: 67%; Fungicidal activity (inhibition) against AS: Alternaria solani [7]: 79%; Fungicidal activity (inhibition) against PP: Physalospora piricola [8]: 81%; Fungicidal activity (inhibition) against PI: Phytophthora infestans (Mont) de Bary ([9]; 50 μg/mL): 91%; Fungicidal activity, inhibition, SS ([10]; 50 μg/mL): 100%; Fungicidal activity (inhibition) against CA: Cercospora arachidicola [11]: 81%; Fungicidal activity (inhibition) against PS: Pellicularia sasakii [12]: 92%; Fungicidal activity (inhibition) against BC: Botrytis cinerea [13]: 78% |
